# Measurements from article PMC12281424, “A Rac-specific competitive inhibitor of guanine nucleotide binding reduces metastasis in triple-negative breast cancer” (Cell Reports Medicine, 2025).
# What was measured:
# RAC1 [1] = molecular target: RAC1 (Homo sapiens, UniProt P63000); assay: Nucleotide exchange kinetics (mant-GTP/mant-GDP fluorescence); type: biochemical; set-up: Full-length RAC1 carrying a 6xHis tag in C-terminus was purified as previously described; 6xHis (C); made in house
# Experimental: (§1) Figure 2 Identification of a new RAC1 inhibitor (A) Effect of A41 and NSC23766 on ruffle formation (white arrows) induced by EGF (10 ng/mL) in NIH 3T3 cells in serum-free culture medium (CTL). Inhibitors were added at indicated concentration 1 h prior to EGF stimulation. To assess cytoskeleton organization, cells were incubated with Alexa Fluor 488 phalloidin to visualize F-actin. Results shown are representative of 3 independent experiments. Corresponding concentration-response curves have been established by counting the percentages of cells with ruffles (scale bars: 10 μm). (B) Immunoblot analysis and associated quantification of RAC-GTP level and total RAC expression in NIH 3T3 cells stimulated by EGF (10 ng/mL, 5 min) and pre-incubated or not (−) with NSC23766, A41, or A415 at 10^−5 M for 1 h (∗∗∗p < 0.001 vs. controls without EGF stimulation, ^###p < 0.001 vs. controls with EGF stimulation) (N > 3). (C) Representative surface plasmon resonance (SPR) sensograms of binding of immobilized RAC1 with increasing concentrations of A41 with or without EDTA (20 mM) (N > 3). (D) Representative in vitro nucleotide exchange catalyzed by the DH-PH of TIAM (10 nM) measured by the binding of fluorescent mant-GTP (1 μM) to RAC1 (0.5 μM, preloaded with GDP) in the presence of indicated concentrations of A41 (out of N = 6). Dotted lines correspond to the experimental curves, and continuous lines represent the fit of experimental points. (E) Kobs and Kmax were determined in each condition (N = 6). (F) Predicted binding modes of A4 to the NSC23766-binding site (left) or the GDP-binding pocket of RAC1 (right). In the NSC23766-binding site of RAC1, the compound A4 (carbon atoms in blue) makes 2 hydrogen bonds (green dotted line) with Ser71 (S71) and 10 hydrophobic interactions (pink dotted line) with Ala3 (A3), Lys5 (K5), Val36 (V36), Trp56 (W56), Tyr64 (Y64), and Leu67 (L67) leading to a docking score of −6.03 kcal/mol. The GDP molecule is shown with fine line. The P loop is shown in yellow, the switch 1 in orange, and the switch 2 in green. In the GDP-binding pocket, A4 establishes 6 hydrogen bonds with Gly15 (G15), Lys16 (K16), Cys18 (C18), and Lys116 (K116), 1 carbon hydrogen bond with Lys116, and 9 hydrophobic interactions with Cys18, Ile33 (I33), Lys116, Leu119 (L119), and Leu160 (L160), resulting in a docking score of −10.32 kcal/mol.
# Figure 3 Inhibitory mechanism of A41 (A–D) RAC1 activity was monitored by the change in mant-GTP/GDP fluorescence induced by its binding to or releasing from RAC1 (A–D). GDP-bound RAC1 (0.5 μM) was incubated with TRIO (10 nM) and the indicated concentrations of mant-GTP without and with A41 (5 μM) (A–C). Mant-GDP-bound RAC1 (0.5 μM) was incubated with TRIO (10 nM) and GTP (1 μM) without and with A41 (5 μM) (D). AU: arbitrary fluorescence units. All experiments were done in triplicate. Kmax and Kmin are expressed as mean ± SEM. ∗∗p < 0.01 and ∗∗∗p < 0.001 vs. TRIO. (E) Deconvoluted mass spectra generated from crude mass spectrum analyses to evaluate RAC1 photolabeling with [N3]-A41 by LC-HRMS on native protein. (F) Representative mass spectra of both labeled and unlabeled […] peptide during LC-HRMS analysis of RAC1 photolabeling with [N3]-A41 after trypsin digestion. (G) Predicted binding mode of A41 to the GDP-binding pocket of RAC1. Compound A41 (orange) makes 4 hydrogen bonds (green dotted line) with Lys16 (K16), Cys18 (C18), and Lys116 (K116), 2 carbon hydrogen bond (light green dotted line) with Val14 (V14) and Lys116 (K116), and 7 hydrophobic interactions (pink dotted line) with Cys18 (C18), Phe28 (F28), Lys116 (K116), Ala159 (A159), and Leu160 (L160). The P loop is shown in yellow, the switch 1 in orange, and the switch 2 in green.
# Full-length RAC1 carrying a 6xHis tag in C-terminus was purified as previously described.[64] Full-length RAC2, RHOG, RHOA and CDC42 were purified as previously described.[64]^,[65] […]
# [2] = tested on: RAC1-dependent membrane ruffle formation in NIH 3T3 cells; assay: EGF-induced membrane ruffle formation; type: cell-based
# Experimental: Figure 2 Identification of a new RAC1 inhibitor (A) Effect of A41 and NSC23766 on ruffle formation (white arrows) induced by EGF (10 ng/mL) in NIH 3T3 cells in serum-free culture medium (CTL). Inhibitors were added at indicated concentration 1 h prior to EGF stimulation. To assess cytoskeleton organization, cells were incubated with Alexa Fluor 488 phalloidin to visualize F-actin. Results shown are representative of 3 independent experiments. Corresponding concentration-response curves have been established by counting the percentages of cells with ruffles (scale bars: 10 μm). (B) Immunoblot analysis and associated quantification of RAC-GTP level and total RAC expression in NIH 3T3 cells stimulated by EGF (10 ng/mL, 5 min) and pre-incubated or not (−) with NSC23766, A41, or A415 at 10^−5 M for 1 h (∗∗∗p < 0.001 vs. controls without EGF stimulation, ^###p < 0.001 vs. controls with EGF stimulation) (N > 3). […] (D) Representative in vitro nucleotide exchange catalyzed by the DH-PH of TIAM (10 nM) measured by the binding of fluorescent mant-GTP (1 μM) to RAC1 (0.5 μM, preloaded with GDP) in the presence of indicated concentrations of A41 (out of N = 6). […] (E) Kobs and Kmax were determined in each condition (N = 6). […]
# After indicated treatments, cells were fixed with 4% paraformaldehyde and permeabilized in PBS 0.5% Triton X-100. […] Cancer cells were detected with firefly luciferase antibody (ab21176, Abcam) (dilution 1/500) overnight at room temperature, followed by secondary Alexa 488-labeled anti-rabbit antibody (dilution 1/1000). […] After staining, cells were mounted in Prolong gold antifade reagent with DAPI and images were captured by a fluorescence microscope. […]
# Supp. […] For each molecule, druglikeness has been assessed according to Lipinski’s rules: molecular weight (MW)<500; high lipophilicity (LogP<5); less than 5 hydrogen bond donors (HBD); less than 10 hydrogen bond acceptors (HBA). The log P was calculated by using OSIRIS – Data Warrior software. […] IC50 was determined experimentally from the inhibition
# RAC1 [3] = molecular target: T1, RAC1 (Mus musculus, UniProt P63001); assay: RAC-GTP pull-down assay, EGF-stimulated NIH/3T3 fibroblasts; type: cell-based; details: 10^-5 M, 1 h, EGF 10 ng/mL 5 min
# T1 construct: endogenous in cells; host or cells: NIH/3T3 fibroblasts (ATCC CRL-1658), EGF-stimulated
# Experimental: as §1, with “In the GDP-binding pocket, A4 establishes 6 hydrogen bonds with Gly15 (G15), Lys16 (K16), Cys18 (C18), and Lys116 (K116), 1 carbon hydrogen bond with Lys116, and 9 hydrophobic interactions with Cys18, Ile33 (I33), Lys116, Leu119 (L119), and Leu160 (L160), resulting in a docking score of −10.32 kcal/mol.” left out
# Pull-down assay using GST-PBD fusion proteins were performed on NIH-3T3 lysates to assess RAC1 activity as previously described.[63] The precipitated active RAC was subjected to SDS-PAGE and detected by immunoblot with anti-RAC1 antibody (BD biosciences) (dilution 1/1000). […]
# screening molecules (10^-5 M) on NIH/3T3 cell adhesion (xCELLingence Real-time cellanalysis, Agilent), migration (CYTOO Mobility plates) and proliferation (xCELLingence Real-time cell analysis, Agilent) .The level of RAC activation is determinedby the detection of RAC-GTP (pull-down assay) in NIH/3T3 cell treated with EGF (10 ng/mL) and the differentmolecules and normalize to the level of RAC activity measuredin the presenceof the reference RAC inhibitor EHT1864.
RAC1 activation (active GTP-bound RAC1) (RAC1 [3]),SMILES,Inhibition of RAC1 activity (nucleotide exchange assay) (RAC1 [1]) [%],inhibitory effect on RAC1 [2]
,COc1ccc(OC)c(NS(=O)(=O)c2ccc(NC(=O)CCSc3ccc(N=[N+]=[N-])cc3)cc2)c1 [[N3]-A41],46,
,CCC(=O)Nc1ccc(S(=O)(=O)Nc2cc(OC)ccc2OC)cc1 [Compound A420],,loss of the inhibitory effect on RAC1
no significant effect,COc1ccc(OC)c(NC(=O)c2ccc(NC(=O)CCSc3ccc(C)cc3)cc2)c1 [Compound A415],,loss of the inhibitory effect on RAC1
